Article PMC12040169 (PLOS Biology, 2025)
Converted amounts (≈) assume the structure as drawn.

Key:
in vitro = assay: in vitro; parameters: Viability of infected HeLa host cells, resazurin conversion, bulk resorufin fluorescence relative to DMSO; details: human, hela cells; bulk resorufin, mean of 3
[1] = test system: T1, CTL2-GFP (C. trachomatis L2/434/Bu, GFP-expressing); assay: microbe, parasite or virus in culture; parameters: C. trachomatis growth in HeLa, dose-response, mean of bulk GFP fluorescence and imaged total inclusion area; details: Chlamydia trachomatis, HeLa, 28.5 h; mean of GFP and inclusion area
T1 construct: L2/434/Bu, GFP-expressing
Summary of the method: (§1)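 First, bulk GFP and resorufin signals were measured in compound-treated infected cultures. Cells were next fixed and stained with Hoechst. Finally, high-content imaging quantified chlamydial inclusions (area, number) and host nuclei, and MICs were calculated.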

[2] = test system: T1, CTL2-GFP (C. trachomatis L2/434/Bu, GFP-expressing); assay: microbe, parasite or virus in culture; parameters: species or system HeLa; C. trachomatis growth in HeLa, dose-response, mean of bulk GFP fluorescence and imaged total inclusion area; details: Chlamydia trachomatis, 28.5 h; mean of GFP and inclusion area
Summary of the method: as §1

Question: Which viability at 28.5 h, 0.000416667 µM (in vitro) does the source give for `COCCNc1nc2c(c(N3CCCCCC3)n1)CCNCC2` [c18e] here?
Answer: 113%

Question: What about the viability at 28.5 h, 0.00125 µM (in vitro) of the same compound?
Answer: 109%

Question: What about the viability at 28.5 h, 0.00375 µM (in vitro) of the same compound?
Answer: 109%

Question: What about the viability at 28.5 h, 0.0123333 µM (in vitro) of the same compound?
Answer: 108%

Question: And the viability at 28.5 h, 0.037 µM (in vitro)?
Answer: 110%

Question: And the viability at 28.5 h, 0.111 µM (in vitro)?
Answer: 106%

Question: What about the viability at 28.5 h, 0.333 µM (in vitro) of the same compound?
Answer: 107%

Question: What about the viability at 28.5 h, 1 µM (in vitro) of the same compound?
Answer: 102%

Question: And the viability at 28.5 h, 3 µM (in vitro)?
Answer: 108%

Question: What about the viability at 28.5 h, 10 µM (in vitro) of the same compound?
Answer: 101%

Question: And the viability at 28.5 h, 30 µM (in vitro)?
Answer: 103%

Question: What about the IC50 [1] of the same compound?
Answer: 1.27 µM

Question: And the MIC [2]?
Answer: 1.94 µM (≈ 0.619 µg/mL)

Question: For `O=C(Nc1ccc(OC(F)(F)F)cc1)Nc1cc(-c2cccs2)n[nH]1` [c26e], which viability at 28.5 h, 0.000416667 µM (in vitro) is on record?
Answer: 104%

Question: And the viability at 28.5 h, 0.00125 µM (in vitro)?
Answer: 100%

Question: What about the viability at 28.5 h, 0.00375 µM (in vitro) of the same compound?
Answer: 99.3%

Question: What about the viability at 28.5 h, 0.0123333 µM (in vitro) of the same compound?
Answer: 100%

Question: And the viability at 28.5 h, 0.037 µM (in vitro)?
Answer: 96.1%

Question: And the viability at 28.5 h, 0.111 µM (in vitro)?
Answer: 106%

Question: And the viability at 28.5 h, 0.333 µM (in vitro)?
Answer: 106%

Question: What about the viability at 28.5 h, 1 µM (in vitro) of the same compound?
Answer: 108%

Question: What about the viability at 28.5 h, 3 µM (in vitro) of the same compound?
Answer: 105%

Question: And the viability at 28.5 h, 10 µM (in vitro)?
Answer: 103%

Question: And the viability at 28.5 h, 30 µM (in vitro)?
Answer: 96.4%

Question: What about the IC50 [1] of the same compound?
Answer: 2.5 µM

Question: What about the MIC [2] of the same compound?
Answer: 3.98 µM (≈ 1.47 µg/mL)

Question: With `O=C(Nc1ccccc1N1CCCNCC1)c1ccc2ccccc2c1` [c29e] as the compound, how does the viability at 28.5 h, 0.000416667 µM (in vitro) read?
Answer: 108%

Question: What about the viability at 28.5 h, 0.00125 µM (in vitro) of the same compound?
Answer: 107%

Question: What about the viability at 28.5 h, 0.00375 µM (in vitro) of the same compound?
Answer: 108%

Question: What about the viability at 28.5 h, 0.0123333 µM (in vitro) of the same compound?
Answer: 107%

Question: And the viability at 28.5 h, 0.037 µM (in vitro)?
Answer: 109%

Question: And the viability at 28.5 h, 0.111 µM (in vitro)?
Answer: 116%

Question: And the viability at 28.5 h, 0.333 µM (in vitro)?
Answer: 114%

Question: And the viability at 28.5 h, 1 µM (in vitro)?
Answer: 115%

Question: And the viability at 28.5 h, 3 µM (in vitro)?
Answer: 111%

Question: And the viability at 28.5 h, 10 µM (in vitro)?
Answer: 116%

Question: What about the viability at 28.5 h, 30 µM (in vitro) of the same compound?
Answer: 112%

Question: What about the IC50 [1] of the same compound?
Answer: 2.87 µM

Question: What about the MIC [2] of the same compound?
Answer: 5.56 µM (≈ 1.92 µg/mL)

Question: For `Fc1cc(Br)c(CNCc2ncc[nH]2)c(N2CCCCC2)c1F` [c31e], which viability at 28.5 h, 0.000416667 µM (in vitro) is on record?
Answer: 101%

Question: And the viability at 28.5 h, 0.00125 µM (in vitro)?
Answer: 103%

Question: What about the viability at 28.5 h, 0.00375 µM (in vitro) of the same compound?
Answer: 98.4%

Question: And the viability at 28.5 h, 0.0123333 µM (in vitro)?
Answer: 96.4%

Question: What about the viability at 28.5 h, 0.037 µM (in vitro) of the same compound?
Answer: 92%

Question: And the viability at 28.5 h, 0.111 µM (in vitro)?
Answer: 100%

Question: What about the viability at 28.5 h, 0.333 µM (in vitro) of the same compound?
Answer: 93.6%

Question: And the viability at 28.5 h, 1 µM (in vitro)?
Answer: 97.6%

Question: What about the viability at 28.5 h, 3 µM (in vitro) of the same compound?
Answer: 101%

Question: And the viability at 28.5 h, 10 µM (in vitro)?
Answer: 97.6%

Question: And the viability at 28.5 h, 30 µM (in vitro)?
Answer: 102%

Question: And the IC50 [1]?
Answer: 3.12 µM

Question: What about the MIC [2] of the same compound?
Answer: 5.18 µM (≈ 1.99 µg/mL)

Question: With `Cc1cccc(OCC(C)NC(=O)NCCc2cnn(C)c2)c1` (stereo not drawn) [c47e] as the compound, how does the viability at 28.5 h, 0.000416667 µM (in vitro) read?
Answer: 97.2%

Question: And the viability at 28.5 h, 0.00125 µM (in vitro)?
Answer: 99.7%

Question: And the viability at 28.5 h, 0.00375 µM (in vitro)?
Answer: 102%

Question: And the viability at 28.5 h, 0.0123333 µM (in vitro)?
Answer: 104%

Question: And the viability at 28.5 h, 0.037 µM (in vitro)?
Answer: 105%

Question: What about the viability at 28.5 h, 0.111 µM (in vitro) of the same compound?
Answer: 100%

Question: And the viability at 28.5 h, 0.333 µM (in vitro)?
Answer: 112%

Question: What about the viability at 28.5 h, 1 µM (in vitro) of the same compound?
Answer: 106%

Question: And the viability at 28.5 h, 3 µM (in vitro)?
Answer: 109%

Question: And the viability at 28.5 h, 10 µM (in vitro)?
Answer: 113%

Question: And the viability at 28.5 h, 30 µM (in vitro)?
Answer: 118%

Question: What about the IC50 [1] of the same compound?
Answer: 6.59 µM

Question: And the MIC [2]?
Answer: 12.1 µM (≈ 3.83 µg/mL)

Question: With `CC1=C(C)C(=NNC(N)=S)C(C)=C(C)C1=NNC(N)=S` [c19e] as the compound, how does the viability at 28.5 h, 0.000416667 µM (in vitro) read?
Answer: 101%

Question: What about the viability at 28.5 h, 0.00125 µM (in vitro) of the same compound?
Answer: 103%

Question: And the viability at 28.5 h, 0.00375 µM (in vitro)?
Answer: 109%

Question: What about the viability at 28.5 h, 0.0123333 µM (in vitro) of the same compound?
Answer: 101%

Question: And the viability at 28.5 h, 0.037 µM (in vitro)?
Answer: 101%

Question: And the viability at 28.5 h, 0.111 µM (in vitro)?
Answer: 107%

Question: What about the viability at 28.5 h, 0.333 µM (in vitro) of the same compound?
Answer: 104%

Question: What about the viability at 28.5 h, 1 µM (in vitro) of the same compound?
Answer: 103%

Question: And the viability at 28.5 h, 3 µM (in vitro)?
Answer: 107%

Question: What about the viability at 28.5 h, 10 µM (in vitro) of the same compound?
Answer: 109%

Question: What about the viability at 28.5 h, 30 µM (in vitro) of the same compound?
Answer: 114%

Question: And the IC50 [1]?
Answer: 1.39 µM

Question: What about the MIC [2] of the same compound?
Answer: 3.58 µM (≈ 1.11 µg/mL)

Question: For `OCCNc1nc(Nc2ccc(Br)cc2)nc2ccccc12` [c17e], which viability at 28.5 h, 0.000416667 µM (in vitro) is on record?
Answer: 95.2%

Question: And the viability at 28.5 h, 0.00125 µM (in vitro)?
Answer: 87.1%

Question: And the viability at 28.5 h, 0.00375 µM (in vitro)?
Answer: 86.4%

Question: And the viability at 28.5 h, 0.0123333 µM (in vitro)?
Answer: 86.4%

Question: And the viability at 28.5 h, 0.037 µM (in vitro)?
Answer: 88.2%

Question: What about the viability at 28.5 h, 0.111 µM (in vitro) of the same compound?
Answer: 83.5%

Question: What about the viability at 28.5 h, 0.333 µM (in vitro) of the same compound?
Answer: 88.9%

Question: And the viability at 28.5 h, 1 µM (in vitro)?
Answer: 86%

Question: And the viability at 28.5 h, 3 µM (in vitro)?
Answer: 84.9%

Question: And the viability at 28.5 h, 10 µM (in vitro)?
Answer: 81.2%

Question: And the viability at 28.5 h, 30 µM (in vitro)?
Answer: 71.2%

Question: And the IC50 [1]?
Answer: 1.24 µM

Question: What about the MIC [2] of the same compound?
Answer: 3.14 µM (≈ 1.13 µg/mL)

Question: Which results are given for `COc1ccc(C2CC(=O)C=C(Nc3cc(Cl)ccc3O)C2)cc1` (stereo not drawn) [c24e]?
Answer: viability at 28.5 h, 0.000416667 µM (in vitro): 94%; viability at 28.5 h, 0.00125 µM (in vitro): 92.4%; viability at 28.5 h, 0.00375 µM (in vitro): 94.1%; viability at 28.5 h, 0.0123333 µM (in vitro): 84.9%; viability at 28.5 h, 0.037 µM (in vitro): 89.8%; viability at 28.5 h, 0.111 µM (in vitro): 84.5%; viability at 28.5 h, 0.333 µM (in vitro): 88.6%; viability at 28.5 h, 1 µM (in vitro): 85.7%; viability at 28.5 h, 3 µM (in vitro): 87.6%; viability at 28.5 h, 10 µM (in vitro): 83.7%; viability at 28.5 h, 30 µM (in vitro): 88.4%; IC50 [1]: 2.46 µM; MIC [2]: 5.71 µM (≈ 1.96 µg/mL)

Question: For `CC(=O)Nc1ccc(-c2cccc(COC3CCN(C(=O)c4ccc(OC(C)C)cc4)CC3)c2)cc1` [c36e], which viability at 28.5 h, 0.000416667 µM (in vitro) is on record?
Answer: 89.8%

Question: What about the viability at 28.5 h, 0.00125 µM (in vitro) of the same compound?
Answer: 85.4%

Question: And the viability at 28.5 h, 0.00375 µM (in vitro)?
Answer: 90.5%

Question: What about the viability at 28.5 h, 0.0123333 µM (in vitro) of the same compound?
Answer: 89%

Question: And the viability at 28.5 h, 0.037 µM (in vitro)?
Answer: 91.7%

Question: And the viability at 28.5 h, 0.111 µM (in vitro)?
Answer: 89.4%

Question: What about the viability at 28.5 h, 0.333 µM (in vitro) of the same compound?
Answer: 94.8%

Question: What about the viability at 28.5 h, 1 µM (in vitro) of the same compound?
Answer: 92%

Question: What about the viability at 28.5 h, 3 µM (in vitro) of the same compound?
Answer: 95.1%

Question: What about the viability at 28.5 h, 10 µM (in vitro) of the same compound?
Answer: 97.8%

Question: And the viability at 28.5 h, 30 µM (in vitro)?
Answer: 116%

Question: And the IC50 [1]?
Answer: 4.11 µM

Question: And the MIC [2]?
Answer: 8.26 µM (≈ 4.02 µg/mL)
